# Measurements: publication PMC6630443 (Viruses, 2019)
# Tests used:
# [1] = tested on: USUV; assay: microbe, parasite or virus in culture; format: cell-based; conditions: Usutu virus, Vero, 48 h
# [2] = tested on: Vero cells
# [3] = in vitro; conditions: African green monkey
# [4] = tested on: persistent USUV; format: cell-based, Usutu virus
# [5] = in vivo; cited from earlier work
# [6] = tested on: persistent USUV; format: cell-based, Usutu virus; remark: listed apart in the source
SMILES,IC50 [1] [µM],Toxicity in words [2],CC50 [3] [µM],Decrease in intracellular viral RNA levels [4] [log10],Plasma concentration [5] [µM],Day by which infectious virus in the cellular supernatant is completely extinct [6] [days],Decrease in virus titers and RNA levels in cellular supernatants [6]
"O=c1[nH]cc(F)c(=O)[nH]1 [5-Fluorouracil, 2,4-dihydroxy-5-fluoropyrimidine]",71,elevated toxicity,66,,,,
"NC(=O)c1nc(F)cnc1O [Favipiravir, 6-fluoro-3-hydroxy-2-pyrazinecarboxamide]",315,,> 2000,< 2,1500 to 2000,≤ 6,~ 5 log10
"NC(=O)c1ncn([C@@H]2O[C@H](CO)[C@@H](O)[C@H]2O)n1 [Ribavirin, 1-(β-D-Ribofuranosyl)-1H-1,2,4-triazole-3-carboxamide]",163,,> 2000,< 2,,≤ 6,~ 5 log10
